In ChEMBL document CHEMBL1136646, “Biphenyls as potent vitronectin receptor antagonists. Part 2: biphenylalanine ureas” (Bioorg Med Chem Lett, 2003):

molecular target: Integrin alpha-V/beta-3 (Homo sapiens, UniProt P05106+P06756); assay: Binding affinity towards vitronectin receptor (alpha V-beta3) was determined; type: protein-complex assay
Sequence (P05106 27-788 limits assumed): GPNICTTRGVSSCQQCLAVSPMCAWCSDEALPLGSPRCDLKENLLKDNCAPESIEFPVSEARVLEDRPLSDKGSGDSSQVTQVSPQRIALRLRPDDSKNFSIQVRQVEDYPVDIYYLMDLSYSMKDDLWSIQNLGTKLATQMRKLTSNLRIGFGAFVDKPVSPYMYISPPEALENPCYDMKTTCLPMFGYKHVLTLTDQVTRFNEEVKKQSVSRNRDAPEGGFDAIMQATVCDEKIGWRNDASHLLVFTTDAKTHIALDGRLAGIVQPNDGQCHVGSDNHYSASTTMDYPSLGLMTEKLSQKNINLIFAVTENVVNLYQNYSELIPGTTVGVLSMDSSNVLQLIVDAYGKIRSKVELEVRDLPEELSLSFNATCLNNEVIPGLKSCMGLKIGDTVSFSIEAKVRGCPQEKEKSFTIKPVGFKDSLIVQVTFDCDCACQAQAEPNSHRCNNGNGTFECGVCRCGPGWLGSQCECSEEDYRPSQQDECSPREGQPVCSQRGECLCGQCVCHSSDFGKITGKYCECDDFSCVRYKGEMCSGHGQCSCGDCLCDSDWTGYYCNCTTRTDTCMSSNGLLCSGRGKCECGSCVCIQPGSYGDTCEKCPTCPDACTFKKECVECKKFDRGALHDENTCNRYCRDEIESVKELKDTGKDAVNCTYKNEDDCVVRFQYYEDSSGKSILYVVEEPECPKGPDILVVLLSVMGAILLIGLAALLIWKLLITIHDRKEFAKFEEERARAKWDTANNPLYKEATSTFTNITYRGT
Sequence (P06756 31-889 limits assumed): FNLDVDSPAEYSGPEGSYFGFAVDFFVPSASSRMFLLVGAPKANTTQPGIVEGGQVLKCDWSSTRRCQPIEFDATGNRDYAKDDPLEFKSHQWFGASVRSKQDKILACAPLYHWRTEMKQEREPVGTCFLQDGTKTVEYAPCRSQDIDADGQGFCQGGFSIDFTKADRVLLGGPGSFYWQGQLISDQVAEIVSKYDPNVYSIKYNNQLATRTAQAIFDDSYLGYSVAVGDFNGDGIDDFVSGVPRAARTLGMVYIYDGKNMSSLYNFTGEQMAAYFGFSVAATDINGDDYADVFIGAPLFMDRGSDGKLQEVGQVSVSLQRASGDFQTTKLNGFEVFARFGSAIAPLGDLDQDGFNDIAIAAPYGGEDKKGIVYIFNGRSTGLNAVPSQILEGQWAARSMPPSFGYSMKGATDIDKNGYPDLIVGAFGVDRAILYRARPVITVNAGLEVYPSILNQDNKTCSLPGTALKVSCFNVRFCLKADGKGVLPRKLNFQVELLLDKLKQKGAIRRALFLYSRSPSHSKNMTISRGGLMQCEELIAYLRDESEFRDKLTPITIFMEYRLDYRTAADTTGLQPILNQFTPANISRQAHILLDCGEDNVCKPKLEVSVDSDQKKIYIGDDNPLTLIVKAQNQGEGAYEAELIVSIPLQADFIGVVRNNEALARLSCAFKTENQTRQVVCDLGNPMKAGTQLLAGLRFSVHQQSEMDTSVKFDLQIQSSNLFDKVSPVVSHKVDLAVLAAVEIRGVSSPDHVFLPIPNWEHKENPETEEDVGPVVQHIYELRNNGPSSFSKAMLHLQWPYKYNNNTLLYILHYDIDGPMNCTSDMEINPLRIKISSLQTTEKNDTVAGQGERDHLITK
Sequence (P06756 891-1048 limits assumed): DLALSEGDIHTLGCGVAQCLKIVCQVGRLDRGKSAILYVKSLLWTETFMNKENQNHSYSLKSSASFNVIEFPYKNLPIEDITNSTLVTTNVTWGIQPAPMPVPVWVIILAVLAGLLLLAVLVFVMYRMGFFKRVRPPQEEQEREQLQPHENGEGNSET

Row | Ki [nM] | SMILES
1 | 210 | CCCNC(=O)Nc1cccc(-c2ccc(C[C@H](NC(=O)OC3CCCC3)C(=O)O)cc2)c1
2 | 74 | CCC(C)NC(=O)Nc1cccc(-c2ccc(C[C@H](NS(=O)(=O)c3c(C)cc(C)cc3C)C(=O)O)cc2)c1 (stereo partly drawn)
3 | 300 | CCCNC(=O)Nc1cccc(-c2ccc(C[C@H](NS(=O)(=O)Cc3ccccc3)C(=O)O)cc2)c1
4 | 170 | CCCNC(=O)Nc1cccc(-c2ccc(C[C@H](NS(=O)(=O)c3cccc(Cl)c3Cl)C(=O)O)cc2)c1
5 | 80 | Cc1cc(C)c(S(=O)(=O)N[C@@H](Cc2ccc(-c3cccc(NC(=O)NCC(F)(F)C(F)(F)F)c3)cc2)C(=O)O)c(C)c1
6 | 1 | CCCNC(=O)Nc1cccc(-c2ccc(C[C@H](NS(=O)(=O)C[C@]34CCC(CC3=O)C4(C)C)C(=O)O)cc2)c1
7 | 100 | Cc1cc(C)c(S(=O)(=O)N[C@@H](Cc2ccc(-c3ccc(C)c(NC(=O)NC4CCCC4)c3)cc2)C(=O)O)c(C)c1
8 | 8 | Cc1cc(C)c(S(=O)(=O)N[C@@H](Cc2ccc(-c3cccc(NC(=O)NCCSC(F)(F)F)c3)cc2)C(=O)O)c(C)c1
9 | 100 | CCCNC(=O)Nc1cccc(-c2ccc(C[C@H](NS(=O)(=O)c3ccc(Cl)cc3C(F)(F)F)C(=O)O)cc2)c1
10 | 2.5 | Cc1cc(C)c(S(=O)(=O)N[C@@H](Cc2ccc(-c3cccc(NC(=O)NC4CC4)c3)cc2)C(=O)O)c(C)c1
11 | 900 | CCCNC(=O)Nc1cccc(-c2ccc(C[C@H](NC(=O)OCC(C)C)C(=O)O)cc2)c1
12 | 75 | CCCNC(=O)Nc1cccc(-c2ccc(C[C@H](NS(C)(=O)=O)C(=O)O)cc2)c1
13 | 11 | Cc1cc(C)c(S(=O)(=O)N[C@@H](Cc2ccc(-c3cccc(NC(=N)N)c3)cc2)C(=O)O)c(C)c1
14 | 850 | CCCNC(=O)Nc1cccc(-c2ccc(C[C@H](NC(=O)NCc3ccccc3)C(=O)O)cc2)c1
15 | 120 | CCCNC(=O)Nc1cccc(-c2ccc(C[C@H](NC(=O)OCC)C(=O)O)cc2)c1
16 | 500 | CCCNC(=O)Nc1cccc(-c2ccc(C[C@H](NS(=O)(=O)c3cc(OC)ccc3OC)C(=O)O)cc2)c1
17 | 4 | CCCNC(=O)Nc1cccc(-c2ccc(C[C@H](NS(=O)(=O)c3c(C)cc(C)cc3C)C(=O)O)cc2)c1
18 | 800 | CCCNC(=O)Nc1cccc(-c2ccc(C[C@H](NC(=O)OCC(C)(C)C)C(=O)O)cc2)c1
19 | 14 | Cc1cc(C)c(S(=O)(=O)N[C@@H](Cc2ccc(-c3cccc(NC(=O)NC(C)C)c3)cc2)C(=O)O)c(C)c1

Row | Ki [nM] | SMILES
20 | > 10000 | CCCNC(=O)Nc1cccc(-c2ccc(C[C@H](NS(=O)(=O)c3ccccc3S(C)(=O)=O)C(=O)O)cc2)c1
21 | 10 | Cc1cc(C)c(S(=O)(=O)N[C@@H](Cc2ccc(-c3cccc(NC(=O)NCC(C)C)c3)cc2)C(=O)O)c(C)c1
22 | > 10000 | CCCNC(=O)Nc1cccc(-c2cccc(C[C@H](NS(=O)(=O)c3c(C)cc(C)cc3C)C(=O)O)c2)c1
23 | 80 | Cc1cc(C)c(S(=O)(=O)N[C@@H](Cc2ccc(-c3cccc(NC(N)=O)c3)cc2)C(=O)O)c(C)c1
24 | 20 | Cc1cc(C)c(S(=O)(=O)N[C@@H](Cc2ccc(-c3cccc(NC(=O)NCC(F)(F)F)c3)cc2)C(=O)O)c(C)c1
25 | > 10000 | CCCNC(=O)Nc1cccc(-c2ccc(C[C@H](NC(=O)c3ccc(OC)cc3)C(=O)O)cc2)c1
26 | 560 | CCCNC(=O)Nc1cccc(-c2ccc(C[C@H](NC(N)=O)C(=O)O)cc2)c1
27 | 1000 | Cc1cc(C)c(S(=O)(=O)N[C@@H](Cc2ccc(-c3cccc(NC(=O)NCc4ccc(C(F)(F)F)cc4)c3)cc2)C(=O)O)c(C)c1
28 | > 10000 | Cc1cc(C)c(S(=O)(=O)N[C@@H](Cc2ccc(-c3cccc(NC(=O)NCc4ccccn4)c3)cc2)C(=O)O)c(C)c1
29 | 60 | Cc1cc(C)c(S(=O)(=O)N[C@@H](Cc2ccc(-c3cccc(NC(=O)NCc4ccccc4)c3)cc2)C(=O)O)c(C)c1
30 | > 10000 | Cc1cc(C)c(S(=O)(=O)N[C@@H](Cc2ccc(-c3cccc(NC(=O)Nc4nc5ccccc5[nH]4)c3)cc2)C(=O)O)c(C)c1
31 | 160 | CNC(=O)Nc1cccc(-c2ccc(C[C@H](NS(=O)(=O)c3c(C)cc(C)cc3C)C(=O)O)cc2)c1
32 | 750 | CCCNC(=O)Nc1cccc(-c2ccc(C[C@H](NS(=O)(=O)c3ccc(OC)c(OC)c3)C(=O)O)cc2)c1
33 | 10 | Cc1cc(C)c(S(=O)(=O)N[C@@H](Cc2ccc(-c3ccc(C)c(NC(=O)NC4CC4)c3)cc2)C(=O)O)c(C)c1
34 | 70 | CCCNC(=O)Nc1cccc(-c2ccc(C[C@H](NS(=O)(=O)c3ccccc3C)C(=O)O)cc2)c1
35 | 1700 | CCCNC(=O)Nc1cccc(-c2ccc(C[C@H](NS(=O)(=O)c3cc(Cl)ccc3OC)C(=O)O)cc2)c1
36 | > 10000 | CCCNC(=O)Nc1cccc(-c2ccc(C[C@H](NS(=O)(=O)c3ccccc3C(F)(F)F)C(=O)O)cc2)c1
37 | 800 | CCCNC(=O)Nc1cccc(-c2ccc(C[C@H](NC(=O)OCc3ccccc3)C(=O)O)cc2)c1

Row | SMILES | Ki [nM]
38 | CCCNC(=O)Nc1cccc(-c2ccc(C[C@H](NC(=O)Oc3ccc(OC)cc3)C(=O)O)cc2)c1 | 300
